Results as given in ChEMBL document CHEMBL3112491, “3-(5-)-Amino-o-diarylisoxazoles: regioselective synthesis and antitubulin activity” (2014).

Columns and labels:
Type in all cases: functional
MCF7 = assay: Growth inhibition of human MCF7 cells after 48 hrs by sulforhodamine B assay; conditions: MCF7, 48 h
NCI-H522 = assay: Growth inhibition of human NCI-H522 cells after 48 hrs by sulforhodamine B assay; conditions: NCI-H522, 48 h
SK-MEL-5 = assay: Growth inhibition of human SK-MEL-5 cells after 48 hrs by sulforhodamine B assay; conditions: SK-MEL-5, 48 h
SF-295 = assay: Growth inhibition of human SF295 cells after 48 hrs by sulforhodamine B assay; conditions: SF-295, 48 h
HOP-62 = assay: Growth inhibition of human HOP62 cells after 48 hrs by sulforhodamine B assay; conditions: HOP-62, 48 h
SK-OV-3 = assay: Growth inhibition of human SKOV3 cells after 48 hrs by sulforhodamine B assay; conditions: SK-OV-3, 48 h
NCI-H23 = assay: Growth inhibition of human NCI-H23 cells after 48 hrs by sulforhodamine B assay; conditions: NCI-H23, 48 h
[1] = Growth inhibition of human OVCAR4 cells after 48 hrs by sulforhodamine B assay; conditions: OVCAR-4, 48 h
SK-MEL-2 = assay: Growth inhibition of human SK-MEL-2 cells after 48 hrs by sulforhodamine B assay; conditions: SK-MEL-2, 48 h
Malme-3M = assay: Growth inhibition of human MALME-3M cells after 48 hrs by sulforhodamine B assay
[2] = Growth inhibition of human HOP92 cells after 48 hrs by sulforhodamine B assay; conditions: HOP-92, 48 h
SF-268 = assay: Growth inhibition of human SF268 cells after 48 hrs by sulforhodamine B assay; conditions: SF-268, 48 h
SNB-19 = assay: Growth inhibition of human SNB19 cells after 48 hrs by sulforhodamine B assay; conditions: SNB-19, 48 h
MOLT-4 = assay: Growth inhibition of human MOLT4 cells after 48 hrs by sulforhodamine B assay; conditions: MOLT-4, 48 h
SNB-75 = assay: Growth inhibition of human SNB75 cells after 48 hrs by sulforhodamine B assay; conditions: SNB-75, 48 h
BT-549 = assay: Growth inhibition of human BT549 cells after 48 hrs by sulforhodamine B assay; conditions: BT-549, 48 h
SR = assay: Growth inhibition of human SR cells after 48 hrs by sulforhodamine B assay
[3] = Growth inhibition of human NCI-ADR-RES cells after 48 hrs by sulforhodamine B assay
[4] = Growth inhibition of human SF539 cells after 48 hrs by sulforhodamine B assay; conditions: SF-539, 48 h
HCT-15 = assay: Growth inhibition of human HCT15 cells after 48 hrs by sulforhodamine B assay; conditions: HCT-15, 48 h
U-251 = assay: Growth inhibition of human U251 cells after 48 hrs by sulforhodamine B assay; conditions: U-251, 48 h
Paracentrotus lividus [5] = assay: Antimitotic activity in sea urchin fertilized egg assessed as cleavage alteration treated at 8 to 20 mins post-fertilization measured at 2.5 to 5.5 hrs post-fertilization
A549 = assay: Growth inhibition of human A549/ATCC cells after 48 hrs by sulforhodamine B assay; conditions: A549, 48 h
COLO 205 = assay: Growth inhibition of human COLO205 cells after 48 hrs by sulforhodamine B assay; conditions: COLO 205, 48 h
HCT-116 = assay: Growth inhibition of human HCT116 cells after 48 hrs by sulforhodamine B assay; conditions: HCT-116, 48 h
Paracentrotus lividus [6] = assay: Microtubule destabilizing activity in sea urchin free-swimming blastula assessed as embryo spinning treated at 9 to 10 hrs post-fertilization measured after 0.15 to 15 hrs
TK-10 = assay: Growth inhibition of human TK10 cells after 48 hrs by sulforhodamine B assay; conditions: TK-10, 48 h
[7] = Growth inhibition of human OVCAR5 cells after 48 hrs by sulforhodamine B assay; conditions: OVCAR-5, 48 h
OVCAR-8 = assay: Growth inhibition of human OVCAR8 cells after 48 hrs by sulforhodamine B assay; conditions: OVCAR-8, 48 h
[8] = Growth inhibition of human UO31 cells after 48 hrs by sulforhodamine B assay; conditions: UO-31, 48 h
[9] = Growth inhibition of human Hs 578T cells after 48 hrs by sulforhodamine B assay
MDA-MB-468 = assay: Growth inhibition of human MDA-MB-468 cells after 48 hrs by sulforhodamine B assay; conditions: MDA-MB-468, 48 h
ACHN = assay: Growth inhibition of human ACHN cells after 48 hrs by sulforhodamine B assay
786-0 = assay: Growth inhibition of human 786-0 cells after 48 hrs by sulforhodamine B assay; conditions: 786-0, 48 h
LOX IMVI = assay: Growth inhibition of human LOXIMVI cells after 48 hrs by sulforhodamine B assay
IGROV-1 = assay: Growth inhibition of human IGROV1 cells after 48 hrs by sulforhodamine B assay; conditions: IGROV-1, 48 h
[10] = Growth inhibition of human UACC257 cells after 48 hrs by sulforhodamine B assay; conditions: UACC-257, 48 h
NCI-H460 = assay: Growth inhibition of human NCI-H460 cells after 48 hrs by sulforhodamine B assay; conditions: NCI-H460, 48 h
SN12C = assay: Growth inhibition of human SN12C cells after 48 hrs by sulforhodamine B assay
NCI-H322M = assay: Growth inhibition of human NCI-H322M cells after 48 hrs by sulforhodamine B assay
[11] = Growth inhibition of human HCC2998 cells after 48 hrs by sulforhodamine B assay; conditions: HCC 2998, 48 h
Paracentrotus lividus [12] = assay: Antimitotic activity in sea urchin fertilized egg assessed as cleavage arrest treated at 8 to 20 mins post-fertilization measured at 2.5 to 5.5 hrs post-fertilization
MDA-MB-231 = assay: Growth inhibition of human MDA-MB-231 cells after 48 hrs by sulforhodamine B assay; conditions: MDA-MB-231, 48 h
DU-145 = assay: Growth inhibition of human DU145 cells after 48 hrs by sulforhodamine B assay; conditions: DU-145, 48 h
KM12 = assay: Growth inhibition of human KM12 cells after 48 hrs by sulforhodamine B assay; conditions: KM12, 48 h
A498 = assay: Growth inhibition of human A498 cells after 48 hrs by sulforhodamine B assay; conditions: A498, 48 h
HL-60(TB) = assay: Growth inhibition of human HL-60(TB) cells after 48 hrs by sulforhodamine B assay; conditions: HL-60, 48 h
NCI-H226 = assay: Growth inhibition of human NCI-H226 cells after 48 hrs by sulforhodamine B assay; conditions: NCI-H226, 48 h
PC-3 = assay: Growth inhibition of human PC3 cells after 48 hrs by sulforhodamine B assay; conditions: PC-3, 48 h
[13] = Growth inhibition of human EKVX cells after 48 hrs by sulforhodamine B assay
SW-620 = assay: Growth inhibition of human SW620 cells after 48 hrs by sulforhodamine B assay; conditions: SW-620, 48 h
M14 = assay: Growth inhibition of human M14 cells after 48 hrs by sulforhodamine B assay; conditions: M14, 48 h
HT-29 = assay: Growth inhibition of human HT-29 cells after 48 hrs by sulforhodamine B assay; conditions: HT-29, 48 h
OVCAR-3 = assay: Growth inhibition of human OVCAR3 cells after 48 hrs by sulforhodamine B assay; conditions: OVCAR-3, 48 h
MDA-MB-435 = assay: Growth inhibition of human MDA-MB-435 cells after 48 hrs by sulforhodamine B assay; conditions: MDA-MB-435, 48 h
UACC-62 = assay: Growth inhibition of human UACC62 cells after 48 hrs by sulforhodamine B assay; conditions: UACC-62, 48 h
[14] = Growth inhibition of human RXF393 cells after 48 hrs by sulforhodamine B assay; conditions: RXF 393, 48 h
SK-MEL-28 = assay: Growth inhibition of human SK-MEL-28 cells after 48 hrs by sulforhodamine B assay; conditions: SK-MEL-28, 48 h
T47D = assay: Growth inhibition of human T47D cells after 48 hrs by sulforhodamine B assay

## COc1ccc(-c2c(-c3cc(OC)c(OC)c(OC)c3)noc2N)cc1
MCF7
  GI50: < 0.01 µM
NCI-H522
  GI50: < 0.01 µM
SK-MEL-5
  GI50: < 0.01 µM
SF-295
  GI50: < 0.01 µM
HOP-62
  GI50: 0.0144 µM
SK-OV-3
  GI50: < 0.01 µM
NCI-H23
  GI50: 0.0149 µM
[1]
  GI50: 0.0145 µM
SK-MEL-2
  GI50: 0.0188 µM
Malme-3M
  GI50: 13.4 µM
[2]
  GI50: < 0.01 µM
SF-268
  GI50: < 0.01 µM
SNB-19
  GI50: 0.0251 µM
MOLT-4
  GI50: 0.0274 µM
SNB-75
  GI50: < 0.01 µM
BT-549
  GI50: 0.0193 µM
SR
  GI50: < 0.01 µM
[3]
  GI50: < 0.01 µM
[4]
  GI50: < 0.01 µM
HCT-15
  GI50: < 0.01 µM
U-251
  GI50: < 0.01 µM
Paracentrotus lividus [5]
  EC: 0.002 µM
A549
  GI50: < 0.01 µM
COLO 205
  GI50: < 0.01 µM
HCT-116
  GI50: < 0.01 µM
Paracentrotus lividus [6]
  EC: 0.5 µM
TK-10
  GI50: 10.5 µM
[7]
  GI50: 0.0466 µM
OVCAR-8
  GI50: 0.0139 µM
[8]
  GI50: < 0.01 µM
[9]
  GI50: < 0.01 µM
MDA-MB-468
  GI50: < 0.01 µM
ACHN
  GI50: < 0.01 µM
786-0
  GI50: < 0.01 µM
LOX IMVI
  GI50: < 0.01 µM
IGROV-1
  GI50: 0.0106 µM
[10]
  GI50: < 0.01 µM
NCI-H460
  GI50: < 0.01 µM
SN12C
  GI50: 0.0328 µM
NCI-H322M
  GI50: 0.0567 µM
[11]
  GI50: 0.0151 µM
Paracentrotus lividus [12]
  EC: 0.005 µM
MDA-MB-231
  GI50: 0.0319 µM
DU-145
  GI50: 0.0135 µM
KM12
  GI50: < 0.01 µM
A498
  GI50: < 0.01 µM
HL-60(TB)
  GI50: < 0.01 µM
NCI-H226
  GI50: 0.0244 µM
PC-3
  GI50: < 0.01 µM
[13]
  GI50: 15.2 µM
SW-620
  GI50: < 0.01 µM
M14
  GI50: < 0.01 µM
HT-29
  GI50: < 0.01 µM
OVCAR-3
  GI50: < 0.01 µM
MDA-MB-435
  GI50: < 0.01 µM
UACC-62
  GI50: < 0.01 µM

## COc1ccc(-c2c(-c3cc4c(c(OC)c3OC)OCO4)noc2N)cc1
[14]
  GI50: 0.335 µM
MCF7
  GI50: 0.28 µM
NCI-H522
  GI50: 0.0655 µM
SK-MEL-5
  GI50: 0.238 µM
SF-295
  GI50: 0.274 µM
HOP-62
  GI50: 0.551 µM
SK-OV-3
  GI50: 0.338 µM
NCI-H23
  GI50: 0.391 µM
[1]
  GI50: 0.927 µM
SK-MEL-2
  GI50: 0.362 µM
[2]
  GI50: 0.837 µM
SF-268
  GI50: 0.641 µM
SNB-19
  GI50: 0.672 µM
MOLT-4
  GI50: 0.674 µM
SNB-75
  GI50: 0.138 µM
BT-549
  GI50: 0.848 µM
SR
  GI50: 0.0359 µM
[3]
  GI50: 0.126 µM
[4]
  GI50: 0.285 µM
HCT-15
  GI50: 0.352 µM
SK-MEL-28
  GI50: 0.497 µM
U-251
  GI50: 0.359 µM
Paracentrotus lividus [5]
  EC: 0.02 µM
A549
  GI50: 0.523 µM
COLO 205
  GI50: 0.272 µM
HCT-116
  GI50: 0.314 µM
T47D
  GI50: 0.568 µM
Paracentrotus lividus [6]
  EC: 2 µM
TK-10
  GI50: 0.202 µM
[7]
  GI50: 2.1 µM
OVCAR-8
  GI50: 0.448 µM
[8]
  GI50: 0.669 µM
[9]
  GI50: 0.438 µM
MDA-MB-468
  GI50: 0.138 µM
ACHN
  GI50: 0.831 µM
786-0
  GI50: 0.578 µM
LOX IMVI
  GI50: 0.523 µM
IGROV-1
  GI50: 0.683 µM
[10]
  GI50: 0.458 µM
NCI-H460
  GI50: 0.364 µM
SN12C
  GI50: 0.818 µM
NCI-H322M
  GI50: 0.625 µM
[11]
  GI50: 0.524 µM
Paracentrotus lividus [12]
  EC: 0.2 µM
MDA-MB-231
  GI50: 0.983 µM
DU-145
  GI50: 0.487 µM
KM12
  GI50: 0.112 µM
A498
  GI50: 0.374 µM
HL-60(TB)
  GI50: 0.189 µM
NCI-H226
  GI50: 0.855 µM
PC-3
  GI50: 0.3 µM
[13]
  GI50: 23.6 µM
SW-620
  GI50: 0.21 µM
M14
  GI50: 0.244 µM
HT-29
  GI50: 0.262 µM
OVCAR-3
  GI50: 0.184 µM
MDA-MB-435
  GI50: 0.0292 µM
UACC-62
  GI50: 0.513 µM
